Measurements as given in PubChem BioAssay AID1552 (Sanford-Burnham Center for Chemical Genomics, 2009).
Calls of active or inactive are those of the source. No rule for the calls is given here.

Each molecule was assayed against Ubiquitin-conjugating enzyme E2 N (Homo sapiens) (UniProt P61088) (assay: UBE2N binders by NMR, biophysical, purified protein (AID 1552)). Settings: NMR binding to purified UBE2N.
Sequence of Ubiquitin-conjugating enzyme E2 N (Homo sapiens) (P61088 whole entry, looked up): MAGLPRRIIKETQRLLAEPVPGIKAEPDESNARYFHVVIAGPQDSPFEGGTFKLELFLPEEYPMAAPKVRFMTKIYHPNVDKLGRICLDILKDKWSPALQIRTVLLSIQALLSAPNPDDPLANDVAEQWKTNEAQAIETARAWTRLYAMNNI
With CC1(C)Oc2ccc3ccc(=O)oc3c2CC1O (centres undefined) the Kd was > 4 mM (inactive). With N[C@@H](Cc1ccc(O)c(O)c1)C(=O)O the Kd was > 4 mM (inactive). For NC(=O)CCn1cnc2ccccc21, the Kd was > 4 mM (inactive). With CC(=O)N1CCN(S(=O)(=O)c2ccccc2)CC1 the Kd was > 4 mM (inactive). In the case of CC1(C)CC2C1CC[C@]1(C)CCC3C(C(=O)O)CC(=O)O[C@@]32C1 (some centres undefined), the Kd is reported as > 4 mM (inactive). For CC[C@@]1(O)C(=O)OCc2c1cc1n(c2=O)Cc2cc3ccccc3nc2-1, the Kd was > 4 mM (inactive). With NCc1c[nH]c2ccccc12 the Kd was > 4 mM (inactive). For CC1(C)CC(NC(=O)/C=C/C(=O)O)CC(C)(C)N1, the Kd was > 4 mM (inactive). With Cc1cc(N2C(=O)CCC2=O)n(-c2ccccc2)n1 the Kd was > 4 mM (inactive). In the case of Cc1[nH]n(-c2ccccc2)c(=O)c1[N+](=O)[O-], the Kd is reported as > 4 mM (inactive). For NC(=O)c1ccsc1NC(=O)c1ccco1, the Kd was > 4 mM (inactive). In the case of CC(=O)OC(C)(C)[C@@H]1Cc2cc3ccc(=O)oc3cc2O1, the Kd is reported as > 4 mM (inactive). In the case of Cn1ncc(NC(=O)Nc2ccc(F)cc2F)c1C(N)=O, the Kd is reported as > 4 mM (inactive). In the case of O=C1c2cccnc2C(=O)N1Cc1ccco1, the Kd is reported as > 4 mM (inactive). In the case of CCOC(=O)c1cc(C)n(-n2cnnc2)c1C, the Kd is reported as > 4 mM (inactive). In the case of CN(C)S(=O)(=O)c1ccc(N2CCOCC2)nc1, the Kd is reported as > 4 mM (inactive). In the case of O=C(O)C1CC(=O)N(C2Cc3ccccc3C2)C1 (centres undefined), the Kd is reported as > 4 mM (inactive). For Cc1cc(C(=O)NC(C)c2ccncc2)no1 (centres undefined), the Kd was > 4 mM (inactive). Cc1ccc(-c2nn3c(C)nnc3s2)cc1N was tested, and the Kd was > 4 mM (inactive). For Cc1noc(C)c1C(=O)N1CCc2ccccc21, the Kd was > 4 mM (inactive). For O=C(c1ccncc1)N1CCN(C(=O)c2ccco2)CC1, the Kd was > 4 mM (inactive). With COC(=O)c1cn(C(=O)OC)c2ccccc12 the Kd was > 4 mM (inactive). CN1CCN(CC(=O)NC2CCCCC2)CC1 was tested, and the Kd was > 4 mM (inactive). Cn1c(CNc2ccccc2)cc(=O)n(C)c1=O was tested, and the Kd was > 4 mM (inactive). For COc1ccccc1-c1noc(-c2ccco2)n1, the Kd was > 4 mM (inactive). For Cn1c(CN)nc2ccccc21, the Kd was > 4 mM (inactive). For CC1CCN(C(=O)c2ccc3c(c2)OCCO3)CC1, the Kd was > 4 mM (inactive). In the case of COC(=O)C1Cc2ccccc2N1 (centres undefined), the Kd is reported as > 4 mM (inactive). In the case of CCC(=O)Nc1ccc(-c2nn3c(C)nnc3s2)cc1, the Kd is reported as > 4 mM (inactive). In the case of S=c1[nH]c2cccnc2[nH]1, the Kd is reported as > 4 mM (inactive). For O=C(O)Cc1noc2ccccc12, the Kd was > 4 mM (inactive). For O=C1CSC(=O)N1CN1CCCC1, the Kd was > 4 mM (inactive). For Cc1nnc(N2CCc3ccccc3C2)[nH]c1=O, the Kd was > 4 mM (inactive). For COc1c2occc2cc2ccc(=O)oc12, the Kd was > 4 mM (inactive). O=c1[nH]cc(Nc2ccccc2)c(=O)[nH]1 was tested, and the Kd was > 4 mM (inactive). O=c1cnnc(Nc2ccc(O)cc2)[nH]1 was tested, and the Kd was > 4 mM (inactive). In the case of CC(=O)OCC(=O)[C@@]1(O)CCC2C3CC[C@@H]4C[C@H](O)CC[C@]4(C)C3C(=O)C[C@@]21C (some centres undefined), the Kd is reported as > 4 mM (inactive). In the case of Nc1ccc(-c2cn3c(n2)SCC3)cc1, the Kd is reported as > 4 mM (inactive). For CC(C)Nc1ncnc2c1nnn2C, the Kd was > 4 mM (inactive). In the case of Nc1nc(O)c(C2=c3cc(Cl)ccc3=NC2=O)s1, the Kd is reported as > 4 mM (inactive). With Cc1oc(-c2ccccc2)nc1CCO the Kd was > 4 mM (inactive). For COC(=O)c1c(C)cc(OC(=O)c2c(C)cc(O)c(C=O)c2O)c(C)c1O, the Kd was > 4 mM (inactive). CC1=CCCC2C1(C)CCC(C)C2(C)CC/C(C)=C/C[n+]1cn(C)c2c(N)ncnc21 (centres undefined) was tested, and the Kd was > 4 mM (inactive). For NC1=NC(=O)/C(=C\c2cccnc2)S1, the Kd was > 4 mM (inactive). CSc1ccccc1C(=O)N1CCOCC1 was tested, and the Kd was > 4 mM (inactive). N#Cc1cc2c(nc1SCc1ccncc1)CCC2 was tested, and the Kd was > 4 mM (inactive). In the case of CC(=O)Nc1nnc(-c2ccccc2S(C)(=O)=O)o1, the Kd is reported as > 4 mM (inactive). In the case of O=C(C1CCNCC1)N1CCCCCC1, the Kd is reported as > 4 mM (inactive). In the case of COc1ccc(C)cc1-n1c(-c2ccncc2)n[nH]c1=S, the Kd is reported as > 4 mM (inactive). For CCN(CC)S(=O)(=O)c1ccc(F)cc1, the Kd was > 4 mM (inactive). For O=S1(=O)NC(=NCc2ccccc2)c2ccccc21, the Kd was > 4 mM (inactive). For COc1ccc(C)cc1S(=O)(=O)Nc1ccccc1C, the Kd was > 4 mM (inactive). Cc1ccc2c(c1)=C(c1sc(N)nc1O)C(=O)N=2 was tested, and the Kd was > 4 mM (inactive). CC[C@H]1CN2CCc3cc(OC)c(OC)cc3C2C[C@@H]1CC1NCCc2cc(OC)c(OC)cc21 (some centres undefined) was tested, and the Kd was > 4 mM (inactive). Cc1nc(-c2ccccc2)sc1CN was tested, and the Kd was > 4 mM (inactive). In the case of Cc1cc(O)cc(O)c1C(=O)O, the Kd is reported as > 4 mM (inactive). CCOC(=O)c1c(C)cc(OC)cc1O was tested, and the Kd was > 4 mM (inactive). For Cn1c(CSc2nc3ccccc3s2)n[nH]c1=S, the Kd was > 4 mM (inactive). For O=C(Nc1ccon1)c1ccc(Br)o1, the Kd was > 4 mM (inactive). In the case of O=C1NC(=O)C(C(=S)Nc2ccccc2)C(=O)N1, the Kd is reported as > 4 mM (inactive). Nc1nnc(SCc2cccnc2)s1 was tested, and the Kd was > 4 mM (inactive). With O=C(Nc1nc2c(s1)CCCC2)c1cccnc1 the Kd was > 4 mM (inactive). For Nc1cccnc1N1CCOCC1, the Kd was > 4 mM (inactive). For Cc1nnc(Nc2cccnc2)[nH]c1=O, the Kd was > 4 mM (inactive). With O=C(NC1=NCCS1)c1ccc([N+](=O)[O-])cc1Cl the Kd was > 4 mM (inactive). CCN1CCC(=NO)CC1 was tested, and the Kd was > 4 mM (inactive). COc1ccc2c(c1)OCC(Cc1ccc(OC)c(O)c1)C2=O (centres undefined) was tested, and the Kd was > 4 mM (inactive). O=C(c1ccccc1)c1ccc(N2CCNCC2)cc1 was tested, and the Kd was > 4 mM (inactive). With CCNC(=S)N1CCC(C(N)=O)CC1 the Kd was > 4 mM (inactive). For O=C(O)c1cc2ccccc2[nH]1, the Kd was > 4 mM (inactive). In the case of S=c1ccc(N2CCCCC2)n[nH]1, the Kd is reported as > 4 mM (inactive). For O=C1NC(=O)C(C(C[N+](=O)[O-])c2ccc(O)cc2)C(=O)N1 (centres undefined), the Kd was > 4 mM (inactive). With NC(=O)C1CCN(C(=O)c2ccccc2)CC1 the Kd was > 4 mM (inactive). With CC(=O)Nc1ccc(C(=O)n2nc(C)cc2C)cc1 the Kd was > 4 mM (inactive). In the case of Cc1ccc(NC(=O)CC2NCCNC2=O)c(C)c1 (centres undefined), the Kd is reported as > 4 mM (inactive). In the case of Cc1n[nH]c(C)c1CN, the Kd is reported as > 4 mM (inactive). In the case of O=C1O[C@H](C(O)CO)C(O)=C1O (some centres undefined), the Kd is reported as > 4 mM (inactive). With CC(C)(C(N)=O)/[N+]([O-])=C\c1ccccc1 the Kd was > 4 mM (inactive). For Cc1c(CO)cnn1-c1ccc(F)cc1, the Kd was > 4 mM (inactive). With Nc1ccc(O)cn1 the Kd was > 4 mM (inactive). C[C@@H]1CC[C@H]2[C@@H](C)C(=O)O[C@@H]3OC4(C)CC[C@@H]1[C@]32OO4 was tested, and the Kd was > 4 mM (inactive). With Cn1ccc(NC(=S)NC2CCCC2)n1 the Kd was > 4 mM (inactive). For O=C(O)c1cn(-c2ccccc2)nc1-c1cccnc1, the Kd was > 4 mM (inactive). In the case of Nc1ccc(OCc2ccccc2)cc1, the Kd is reported as > 4 mM (inactive). O=C(Nc1cnccn1)c1cccc(C(F)(F)F)c1 was tested, and the Kd was > 4 mM (inactive). In the case of COc1nc(-c2ccccc2)ccc1-c1noc(C)n1, the Kd is reported as > 4 mM (inactive). In the case of CC(=O)Nc1nc2c(s1)C(=O)NCCC2, the Kd is reported as > 4 mM (inactive). CC(=O)c1ccc(NC(=S)N2CCC(O)CC2)cc1 was tested, and the Kd was > 4 mM (inactive). With CN1CCn2c1nc(N1CCCCC1)nc2=O the Kd was > 4 mM (inactive).
